Measured values as given in patent US20110224193A1, “INHIBITORS OF DIACYLGLYCEROL ACYLTRANSFERASE” (MERCK SHARP & DOHME CORP, priority 2008, published 2011).
pIC50: −log10 of the molar value.

molecular target: T1, human DGAT1 enzyme (Homo sapiens, UniProt O75907); test: in vitro DGAT1 inhibition assay (microsomes, [14C]-palmitoyl-CoA, SPA beads); format: biochemical; conditions: human DGAT1 expressed in Sf9 insect cell microsomes, 2 hours at room temperature; read-out: hDGAT IC50
T1 construct: made in house; host or cells: Sf9 insect cells (microsomes)
T1 sequence (O75907 1-488): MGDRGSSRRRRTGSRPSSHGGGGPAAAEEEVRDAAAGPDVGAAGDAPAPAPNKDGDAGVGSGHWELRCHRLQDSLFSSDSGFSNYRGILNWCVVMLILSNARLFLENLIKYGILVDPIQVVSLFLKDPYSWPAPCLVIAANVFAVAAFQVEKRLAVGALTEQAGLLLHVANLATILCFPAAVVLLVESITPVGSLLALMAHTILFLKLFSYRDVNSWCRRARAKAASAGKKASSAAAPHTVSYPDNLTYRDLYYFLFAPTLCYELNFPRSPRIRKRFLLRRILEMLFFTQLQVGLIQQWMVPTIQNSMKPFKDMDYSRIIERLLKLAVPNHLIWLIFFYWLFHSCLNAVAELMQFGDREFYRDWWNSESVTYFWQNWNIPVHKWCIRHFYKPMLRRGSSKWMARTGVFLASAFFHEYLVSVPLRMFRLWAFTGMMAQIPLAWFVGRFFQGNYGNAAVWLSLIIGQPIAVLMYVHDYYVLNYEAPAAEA
Description: A useful assay to determine the DGAT inhibitory activity of the inventive compounds is described below:
The in vitro assay to identify DGAT1 inhibitors uses human DGAT1 enzyme expressed in Sf9 insect cells prepared as microsomes. The reaction is initiated by the addition of the combined substrates 1,2-dioleoyl-sn-glycerol and [^14C]-palmitoyl-Co A and incubated with test compounds and microsomal membranes for 2 hours at room temperature. The assay is stopped by adding 0.5 mg wheat germ agglutinin beads in assay buffer with 1% Brij-35 and 1% 3-cholamidopropyldimethyl-ammonio-1-propane sulfonate. Plates are sealed with TopSeal and incubated for 18 hours to allow the radioactive triglyceride product to come into proximity with the bead. Plates are read on a TopCount instrument.
Percent inhibition was calculated as the percent of (test compound inhibition minus non-specific binding) relative to (total binding minus non-specific binding). IC50 values were determined by curve fitting the data to a Sigmoidal dose-response in GraphPad Prism utilizing the following equation:
Y=A+(B−A)/(1+10̂((Log IC50−X))),
where A and B are the bottom and top of the curve (highest and lowest inhibition), respectively, and X is the logarithm of concentration.

First: O=C(Nc1ccc(N2CCC(n3c(=O)[nH]c4ccccc43)CC2)nc1)c1oc(-c2ccccc2)nc1C(F)(F)F [Compound 72]
Second: O=C(Nc1ccc(N2CCC(OCc3ccccc3)CC2)nc1)c1oc(-c2ccccc2)nc1C(F)(F)F [Compound 153]
The pIC50 of the first is lower: 6.30 to 7.00 for the first, 7.00 to 7.96 for the second. The second is the more potent here.

`O=C(Nc1ccc(N2CCN(C(=O)[C@H](O)c3ccccc3)CC2)nc1)c1oc(-c2ccccc2)nc1C(F)(F)F` [Compound 165] and `O=C(Nc1ccc(N2CCCN(C(=O)[C@H](O)c3ccccc3)CC2)nc1)c1oc(-c2ccccc2)nc1C(F)(F)F` [Compound 179] fall in the same range of pIC50: 7.00 to 7.96 for the first, 7.00 to 7.96 for the second.

`O=C(Nc1ccc(N2CCCN(C(=O)[C@H](O)C3CCCCC3)CC2)nc1)c1oc(-c2ccccc2)nc1C(F)(F)F` [Compound 180] and `O=C(Nc1ccc(N2CCN(C(=O)[C@@H](O)C3CCCCC3)CC2)nc1)c1oc(-c2ccccc2)nc1C(F)(F)F` [Compound 170] fall in the same range of pIC50: 7.00 to 7.96 for the first, 7.00 to 7.96 for the second.

`O=C(Nc1ccc(N2CCN(C(=O)C(O)c3ccc(Cl)cc3)CC2)nc1)c1oc(-c2ccccc2)nc1C(F)(F)F` (centres unmarked) [Compound 168] and `O=C(Nc1ccc(N2CCCN(C(=O)[C@H](O)c3ccc(F)c(F)c3)CC2)nc1)c1oc(-c2ccccc2)nc1C(F)(F)F` [Compound 182] fall in the same range of pIC50: 7.00 to 7.96 for the first, 7.00 to 7.96 for the second.

`O=C(Nc1ccc(N2CCN(C(=O)C(O)C(F)(F)F)CC2)nc1)c1oc(-c2ccccc2)nc1C(F)(F)F` (centres unmarked) [Compound 164] and `O=C(Nc1ccc(N2CCCN(C(=O)C(O)C(F)(F)F)CC2)nc1)c1oc(-c2ccccc2)nc1C(F)(F)F` (centres unmarked) [Compound 181] fall in the same range of pIC50: 7.00 to 7.96 for the first, 7.00 to 7.96 for the second.

`O=C(Nc1ccc(N2CCC(O)(c3ccccc3)CC2)nc1)c1oc(-c2ccccc2)nc1C(F)(F)F` [Compound 78] and `O=C(Nc1ccc(N2CCC(O)(c3ccccc3)CC2)nc1)c1nc(-c2ccccc2)oc1C(F)(F)F` [Compound 82] fall in the same range of pIC50: 6.30 to 7.00 for the first, 6.30 to 7.00 for the second.

Compared with `O=C(Nc1ccc(N2CCN(Cc3ccccc3)C(=O)C2)nc1)c1oc(-c2ccccc2)nc1C(F)(F)F` [Compound 62], `O=C(Nc1ccc(N2CCC(=O)N(Cc3ccccc3)CC2)nc1)c1oc(-c2ccccc2)nc1C(F)(F)F` [Compound 157] is lower in pIC50: 7.00 to 7.96 for the first, 6.30 to 7.00 for the second. The first is the more potent here.

`O=C(O)CC(O)(C(=O)N1CCN(c2ccc(NC(=O)c3oc(-c4ccccc4)nc3C(F)(F)F)cn2)CC1)C(F)(F)F` (centres unmarked) [Compound 172] and `O=C(Nc1ccc(N2CCN(C(=O)C(O)Cc3ccccc3)CC2)nc1)c1oc(-c2ccccc2)nc1C(F)(F)F` (centres unmarked) [Compound 171] fall in the same range of pIC50: 7.00 to 7.96 for the first, 7.00 to 7.96 for the second.

First: O=C(Nc1ccc(N2CCC(C(O)c3ccccc3)CC2)nc1)c1oc(-c2ccccc2)nc1C(F)(F)F (centres unmarked) [Compound 155]
Second: O=C(Nc1ccc(N2CCC(CCc3ccccc3)CC2)nc1)c1oc(-c2ccccc2)nc1C(F)(F)F [Compound 151]
The pIC50 of the first is higher: 7.00 to 7.96 for the first, 6.30 to 7.00 for the second.

`O=C(Nc1ccc(N2CCN(C(=O)[C@H](O)C3CCCCC3)CC2)nc1)c1oc(-c2ccccc2)nc1C(F)(F)F` [Compound 169] and `O=C(Nc1ccc(N2CCN(C(=O)C(O)c3ccc4c(c3)OCO4)CC2)nc1)c1oc(-c2ccccc2)nc1C(F)(F)F` (centres unmarked) [Compound 176] fall in the same range of pIC50: 7.00 to 7.96 for the first, 7.00 to 7.96 for the second.
